Data reported in PubChem BioAssay (NCI).
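Briefly, cells in 96-well plates were exposed to five compound concentrations for 48 h, and endpoints were estimated by linear interpolation. The concentration for 50% growth inhibition is given as GI50. At the TGI there is no net growth.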

How the values were obtained:
Assay in all cases: DTP human tumour cell line panel, 48 h
RPMI-8226 leukemia = test system: RPMI-8226 leukemia
OVCAR-5 ovarian = test system: OVCAR-5 ovarian
HCT-116 colon = test system: HCT-116 colon
SR leukemia = test system: SR leukemia
U251 CNS = test system: U251 CNS
SK-MEL-2 melanoma = test system: SK-MEL-2 melanoma
OVCAR-8 ovarian = test system: OVCAR-8 ovarian
SNB-75 CNS = test system: SNB-75 CNS
HOP-92 NSCLC = test system: HOP-92 NSCLC
SF-268 CNS = test system: SF-268 CNS
HCT-15 colon = test system: HCT-15 colon
NCI-H226 lung = test system: NCI-H226 lung
SW-620 colon = test system: SW-620 colon
PC-3 prostate = test system: PC-3 prostate
M14 melanoma = test system: M14 melanoma
ACHN renal = test system: ACHN renal
NCI/ADR-RES ovarian = test system: NCI/ADR-RES ovarian
K-562 leukemia = test system: K-562 leukemia
MDA-MB-231 breast = test system: MDA-MB-231 breast
SK-OV-3 ovarian = test system: SK-OV-3 ovarian
RXF 393 renal = test system: RXF 393 renal
UACC-62 melanoma = test system: UACC-62 melanoma
COLO 205 colon = test system: COLO 205 colon
HCC-2998 colon = test system: HCC-2998 colon
A498 renal = test system: A498 renal
HOP-62 NSCLC = test system: HOP-62 NSCLC
UO-31 renal = test system: UO-31 renal
CCRF-CEM leukemia = test system: CCRF-CEM leukemia
BT-549 breast = test system: BT-549 breast
T-47D breast = test system: T-47D breast
NCI-H522 lung = test system: NCI-H522 lung
HL-60(TB) leukemia = test system: HL-60(TB) leukemia
CAKI-1 renal = test system: CAKI-1 renal
NCI-H460 lung = test system: NCI-H460 lung
OVCAR-3 ovarian = test system: OVCAR-3 ovarian
SNB-19 CNS = test system: SNB-19 CNS
786-0 renal = test system: 786-0 renal
SK-MEL-28 melanoma = test system: SK-MEL-28 melanoma
HS 578T breast = test system: HS 578T breast
SF-539 CNS = test system: SF-539 CNS
TK-10 renal = test system: TK-10 renal
DU-145 prostate = test system: DU-145 prostate
EKVX NSCLC = test system: EKVX NSCLC
HT29 colon = test system: HT29 colon
OVCAR-4 ovarian = test system: OVCAR-4 ovarian
IGROV1 ovarian = test system: IGROV1 ovarian
A549 NSCLC = test system: A549 NSCLC
SN12C renal = test system: SN12C renal
MOLT-4 leukemia = test system: MOLT-4 leukemia
LOX IMVI melanoma = test system: LOX IMVI melanoma
MCF7 breast = test system: MCF7 breast
MDA-MB-435 = test system: MDA-MB-435
SK-MEL-5 melanoma = test system: SK-MEL-5 melanoma
MALME-3M melanoma = test system: MALME-3M melanoma
UACC-257 melanoma = test system: UACC-257 melanoma

For `COc1ccc(NC(=O)[C@H](C)NC(=O)OC(C)(C)C)cc1C(=O)Nc1cccc(-c2cc(=O)c3c(OC)c(OC)c(OC)cc3o2)c1`, the GI50 (RPMI-8226 leukemia) was 1.55 µM, the TGI (RPMI-8226 leukemia) was 5.07 µM and the GI50 (OVCAR-5 ovarian) was 2.01 µM. It also gave a TGI (OVCAR-5 ovarian) of 5.23 µM, a GI50 (HCT-116 colon) of 2.05 µM and a TGI (HCT-116 colon) of 4.63 µM. For the same compound, the GI50 (SR leukemia) was 2.37 µM, the TGI (SR leukemia) was greater than 100 µM and the GI50 (U251 CNS) was 2.46 µM. The TGI (U251 CNS) was 6.61 µM, the GI50 (SK-MEL-2 melanoma) was 1.8 µM and the TGI (SK-MEL-2 melanoma) was 4.29 µM. It also gave a GI50 (OVCAR-8 ovarian) of 1.7 µM, a TGI (OVCAR-8 ovarian) of 5.47 µM and a GI50 (SNB-75 CNS) of 1.46 µM. For the same compound, the TGI (SNB-75 CNS) was 3.2 µM, the GI50 (HOP-92 NSCLC) was 0.37 µM and the TGI (HOP-92 NSCLC) was 4.14 µM. It also gave a GI50 (SF-268 CNS) of 3.41 µM, a TGI (SF-268 CNS) greater than 100 µM and a GI50 (HCT-15 colon) of 2.38 µM. The TGI (HCT-15 colon) was 7.27 µM, the GI50 (NCI-H226 lung) was 1.8 µM and the TGI (NCI-H226 lung) was 3.84 µM. The GI50 (SW-620 colon) was 2.93 µM, the TGI (SW-620 colon) was 8.64 µM and the GI50 (PC-3 prostate) was 2.95 µM. For the same compound, the TGI (PC-3 prostate) was greater than 100 µM, the GI50 (M14 melanoma) was 2.98 µM and the TGI (M14 melanoma) was 7.94 µM. For the same compound, the GI50 (ACHN renal) was 3.34 µM, the TGI (ACHN renal) was greater than 100 µM and the GI50 (NCI/ADR-RES ovarian) was 8.01 µM. The TGI (NCI/ADR-RES ovarian) was greater than 100 µM, the GI50 (K-562 leukemia) was 2.55 µM and the TGI (K-562 leukemia) was greater than 100 µM. For the same compound, the GI50 (MDA-MB-231 breast) was 1.83 µM, the TGI (MDA-MB-231 breast) was 3.99 µM and the GI50 (SK-OV-3 ovarian) was 2.3 µM. It also gave a TGI (SK-OV-3 ovarian) of 4.87 µM, a GI50 (RXF 393 renal) of 1.89 µM and a TGI (RXF 393 renal) of 3.37 µM. It also gave a GI50 (UACC-62 melanoma) of 1.7 µM, a TGI (UACC-62 melanoma) of 3.33 µM and a GI50 (COLO 205 colon) of 1.87 µM. For the same compound, the TGI (COLO 205 colon) was 3.59 µM, the GI50 (HCC-2998 colon) was 1.76 µM and the TGI (HCC-2998 colon) was 3.21 µM. The GI50 (A498 renal) was 3.35 µM, the TGI (A498 renal) was 32.7 µM and the GI50 (HOP-62 NSCLC) was 2.14 µM. It also gave a TGI (HOP-62 NSCLC) of 5.18 µM, a GI50 (UO-31 renal) of 2.4 µM and a TGI (UO-31 renal) greater than 100 µM. For the same compound, the GI50 (CCRF-CEM leukemia) was 1.86 µM, the TGI (CCRF-CEM leukemia) was 8.26 µM and the GI50 (BT-549 breast) was 1.52 µM. For the same compound, the TGI (BT-549 breast) was 2.99 µM, the GI50 (T-47D breast) was 1.7 µM and the TGI (T-47D breast) was 5.97 µM. The GI50 (NCI-H522 lung) was 1.72 µM, the TGI (NCI-H522 lung) was 3.99 µM and the GI50 (HL-60(TB) leukemia) was 2.07 µM. It also gave a TGI (HL-60(TB) leukemia) of 4.96 µM, a GI50 (CAKI-1 renal) of 3.06 µM and a TGI (CAKI-1 renal) greater than 100 µM. For the same compound, the GI50 (NCI-H460 lung) was 2.31 µM, the TGI (NCI-H460 lung) was 5.24 µM and the GI50 (OVCAR-3 ovarian) was 2.13 µM. It also gave a TGI (OVCAR-3 ovarian) of 4.43 µM, a GI50 (SNB-19 CNS) of 3.56 µM and a TGI (SNB-19 CNS) greater than 100 µM. For the same compound, the GI50 (786-0 renal) was 3.03 µM, the TGI (786-0 renal) was greater than 100 µM and the GI50 (SK-MEL-28 melanoma) was 2.5 µM. It also gave a TGI (SK-MEL-28 melanoma) of 5.72 µM, a GI50 (HS 578T breast) of 2.64 µM and a TGI (HS 578T breast) of 9.44 µM. It also gave a GI50 (SF-539 CNS) of 1.88 µM, a TGI (SF-539 CNS) of 4.12 µM and a GI50 (TK-10 renal) of 2.04 µM. The TGI (TK-10 renal) was 7.78 µM, the GI50 (DU-145 prostate) was 3.86 µM and the TGI (DU-145 prostate) was greater than 100 µM. The GI50 (EKVX NSCLC) was 3.17 µM, the TGI (EKVX NSCLC) was greater than 100 µM and the GI50 (HT29 colon) was 1.88 µM. For the same compound, the TGI (HT29 colon) was 3.87 µM, the GI50 (OVCAR-4 ovarian) was 3.13 µM and the TGI (OVCAR-4 ovarian) was greater than 100 µM. The GI50 (IGROV1 ovarian) was 3.25 µM, the TGI (IGROV1 ovarian) was greater than 100 µM and the GI50 (A549 NSCLC) was 2.94 µM. It also gave a TGI (A549 NSCLC) of 10.9 µM, a GI50 (SN12C renal) of 2.38 µM and a TGI (SN12C renal) of 7.34 µM. The GI50 (MOLT-4 leukemia) was 1.71 µM, the TGI (MOLT-4 leukemia) was 7.9 µM and the GI50 (LOX IMVI melanoma) was 1.59 µM. The TGI (LOX IMVI melanoma) was 3.11 µM, the GI50 (MCF7 breast) was 2.72 µM and the TGI (MCF7 breast) was 9.52 µM. The GI50 (MDA-MB-435) was 2 µM, the TGI (MDA-MB-435) was 4.11 µM and the GI50 (SK-MEL-5 melanoma) was 1.47 µM. For the same compound, the TGI (SK-MEL-5 melanoma) was 2.99 µM, the GI50 (MALME-3M melanoma) was 2.48 µM and the TGI (MALME-3M melanoma) was 6.73 µM. The GI50 (UACC-257 melanoma) was 1.99 µM and the TGI (UACC-257 melanoma) was 3.8 µM.
